{"source": "paper PMC9157788", "about": "“Design, Synthesis, and Apoptosis-Promoting Effect Evaluation of Rhopaladins’ Analog 4-Arylidene-5-Oxopyrrolidine Derivatives” (Frontiers in Chemistry, 2022)", "key": {"[1]": {"system": "7402 cells", "test": "Annexin V-FITC/PI flow cytometry apoptosis assay, 7402", "assay_type": "cell-based, human", "conditions": "48 h; for total apoptosis rate: DMSO control 8.96 ± 3.05%", "experimental": "The effect of RPDPRH on apoptosis was performed using the Annexin V-FITC/PI Apoptosis kit (MultiSciences, China), following the manufacturer’s protocol. The cells were digested, dispersed, and plated into six-well plates with 2 × 10^4 cells/well and treated with RPDPRH (0, 6.25, 12.5, and 25 μM) at various concentrations for 48 h. Upon completion of the treatment, cells were harvested, washed with cool phosphate buffered solution (PBS, Gibco, United States) (0.01 M, pH=7.4), and re-suspended in a 500 μl binding buffer. Annexin V-FITC (5 μl) and PI (10 μl) were added into the cell suspension, and then, the suspension was incubated at room temperature away from light for 5 min. Cells were analyzed by using a flow cytometer (Agilent NovoCyte, China) immediately, and the results of the apoptosis were analyzed by FlowJo software."}, "[2]": {"system": "SiHa cells", "test": "MTT cell viability assay, SiHa", "assay_type": "cell-based", "conditions": "Homo sapiens, 48 h, read-out: Half inhibitory concentration (IC50), SiHa", "experimental": "(§1) HepG2 (human epidermoid hepatocellular carcinoma cell), 7402 (human epidermoid hepatocellular carcinoma cell), C-33A (human epidermoid cervical carcinoma cell), and HeLa (human epidermoid cervical adenocarcinoma cell) were incubated in Dulbecco’s modified Eagle’s medium (DMEM), which was purchased from Gibco (Grand Island, NY, United States). SiHa cells (human epidermoid cervical squamous cell carcinoma) were incubated in minimum essential medium (MEM, also from Gibco). CaSki (human epidermoid cervical carcinoma cell) and LO2 (human normal liver cell) were incubated in minimum essential medium (MEM, also from Gibco). All cells were maintained at 37°C in a humidified incubator with 5% carbon dioxide, and the media contained 10% fetal bovine serum (FBS, Corning, United States) and 1% penicillin–streptomycin antibiotic solution (Corning, United States). SiHa and CaSki were bought from the China Center for Type Culture Collection (CCTCC). The other five types of cancer cell lines were obtained from the Experiment Center of Medicine, Sinopharm Dongfeng Hospital, Hubei University of Medicine. The compounds were dissolved in dimethyl sulfoxide (DMSO, MP Biomedicals, United States), and cisplatin was purchased from Aladdin, Shanghai, China. The control (0 μM) group was treated with DMSO only in the same conditions, and the DMSO content in the medium was less than 0.1%.\n(§2) Cell viability was measured by a 3-(4,5-dimethylthiazol-2-yl)-2,5-diphenyltetrazolium bromide (MTT, MultiSciences, China) assay. The specific experimental steps referred to our previous research ([Zhu et al., 2020]). For each cell line, cells were digested and seeded in 96-well plates at a density of 1 × 10^3 cells/well. […] Then, the formed formazan crystals were dissolved in DMSO, and the plates were estimated in a […] microplate reader (BioTek Inc., Bio-Tek MQX200) at a wavelength of 490 nm. Optical density (OD) values were obtained, and the inhibition rate and IC50 of each compound on different cells were calculated by GraphPad Prism 8.0.1 software. […]"}, "[3]": {"system": "Bax", "test": "Western blot, Bax expression in 7402 cells", "assay_type": "cell-based, human", "conditions": "7402, 25 μM, 48 h, vs DMSO control", "experimental": "(§3) The experimental steps of the Western blotting assay referred to Lin’s study ([Lin et al., 2020]). After treatment with different concentrations of RPDPRH (0, 6.25, 12.5, and 25 μM) for 48 h, hepatocarcinoma cells were lysed with an ice-cold RIPA protein lysis buffer (Beyotime, China). Total cell lysates were prepared with RIPA lysis buffer containing phosphatase inhibitors (Roche, China) and protease inhibitors (MedChemExpress, United States). Total cell lysates were centrifuged at 10,000 g for 10 min at 4°C to obtain the supernatant. The protein concentration was detected according to the BCA Protein Assay Kit (Beyotime, China). Then, 5× SDS loading buffer (Beyotime, China) was added to the supernatant and boiled at 100°C for 10 min. The obtained protein samples were stored at −80°C.\n(§4) The protein samples (20 μg) were resolved on 4% concentration glue and 12% separating glue and prepared according to the SDS-PAGE Gel Quick Preparation Kit procedure (Beyotime, China). After electrophoresis at 80 V for 1.5–2 h, the proteins were wet-transferred onto a polyvinylidene difluoride membrane (PVDF, Millipore) at 300 mA for 1–1.5 h. […]"}, "[4]": {"system": "Bcl-2", "test": "Western blot, Bcl-2 expression in HepG2 cells", "assay_type": "cell-based, human", "conditions": "HepG2, 25 μM, 48 h, vs DMSO control, p < 0.01", "experimental": "as §3, §4"}, "[5]": {"system": "HeLa cells", "test": "MTT cell viability assay, HeLa", "assay_type": "cell-based", "conditions": "Homo sapiens, 48 h, read-out: Half inhibitory concentration (IC50), HeLa", "experimental": "as §1, §2"}, "[6]": {"system": "LO2 cells", "test": "MTT cell viability assay, normal liver LO2", "assay_type": "cell-based, human", "experimental": "as §1\nCell viability was measured by a 3-(4,5-dimethylthiazol-2-yl)-2,5-diphenyltetrazolium bromide (MTT, MultiSciences, China) assay. The specific experimental steps referred to our previous research ([Zhu et al., 2020]). For each cell line, cells were digested and seeded in 96-well plates at a density of 1 × 10^3 cells/well. After 24 h of culture, the cells were adherent and treated with varying concentrations of RPDPRH (0, 3.125, 6.25, 12.5, 25, 50, and 100 μM). Cells without treatment were used as a solvent control group (0 μM, DMSO) and those with cisplatin treatment served as a positive control. After 48 h of treatment, MTT solution was added and incubated for 4 h. Then, the formed formazan crystals were dissolved in DMSO, and the plates were estimated in a […] microplate reader (BioTek Inc., Bio-Tek MQX200) at a wavelength of 490 nm. Optical density (OD) values were obtained, and the inhibition rate and IC50 of each compound on different cells were calculated by GraphPad Prism 8.0.1 software. Cell inhibition rate (%) = 1− [(OD experimental-OD blank)/(OD control-OD blank)] × 100%."}, "[7]": {"system": "Bax", "test": "Western blot, Bax expression in HepG2 cells", "assay_type": "cell-based, human", "conditions": "HepG2, 25 μM, 48 h, vs DMSO control", "experimental": "as §3, §4"}}, "note": "pIC50: −log10 of the molar value.", "data": [{"compound": "O=C1/C(=C/c2ccc(Cl)cc2)CC(/C=C/c2ccc(Cl)cc2)(C(=O)NC2CCCCC2)N1c1ccc(F)cc1", "note": "(stereo not drawn) [RPDPRH, (2E, 4E)-4-(4-chlorobenzylidene)-2-(4-chlorostyryl)-N-cyclohexyl-1-(4-fluorophenyl)-5-oxopyrrolidine-2-carboxamide]", "values": [{"measurement": "early apoptotic cell (LR) rate", "setting": "[1]; 7402, 6.25 μM", "value": 4.37, "unit": "%"}, {"measurement": "late apoptotic (UR) rate", "setting": "[1]; 7402, 6.25 μM", "value": 9.34, "unit": "%"}, {"measurement": "total apoptosis rate", "setting": "[1]; 7402, 6.25 μM", "value": "13.71 ± 1.30", "unit": "%"}, {"measurement": "early apoptotic cell (LR) rate", "setting": "[1]; 7402, 12.5 μM", "value": 8.53, "unit": "%"}, {"measurement": "late apoptotic (UR) rate", "setting": "[1]; 7402, 12.5 μM", "value": 15.30, "unit": "%"}, {"measurement": "early apoptotic cell (LR) rate", "setting": "[1]; 7402, 25 μM", "value": 11.40, "unit": "%"}, {"measurement": "late apoptotic (UR) rate", "setting": "[1]; 7402, 25 μM", "value": 24.60, "unit": "%"}, {"measurement": "total apoptosis rate", "setting": "[1]; 7402, 25 μM", "value": "36.00 ± 2.67", "unit": "%"}, {"measurement": "pIC50", "setting": "[2]", "value": 4.75}, {"measurement": "ratio of Bax/Bcl-2", "setting": "[3]", "value": "increase obviously"}, {"measurement": "expression of pro-apoptotic protein Bax", "setting": "[3]; p < 0.05", "value": "significant increase"}, {"measurement": "expression of anti-apoptotic protein Bcl-2", "setting": "[4]", "value": "decrease"}, {"measurement": "pIC50", "setting": "[5]", "value": 4.82}, {"measurement": "melting point", "value": "128 to 130", "unit": "°C"}, {"measurement": "pIC50", "setting": "[6]; Homo sapiens, L02, normal liver LO2 cells, 48 h, read-out: Half inhibitory concentration (IC50), LO2", "value": "< 4.00"}, {"measurement": "toxicity to the normal hepatic LO2 cells", "setting": "[6]; LO2 cells, insignificant inhibition at 100 µM (Table 1 footnote b)", "value": "no significant toxicity"}, {"measurement": "ratio of Bax/Bcl-2", "setting": "[7]", "value": "increase obviously"}, {"measurement": "expression of pro-apoptotic protein Bax", "setting": "[7]; p < 0.05", "value": "significant increase"}]}]}
